Data as given in ChEMBL document CHEMBL6078624, “Structure-based discovery of a 4,5-Dihydropyrazole-cored PET ligand for imaging of receptor-interacting serine/threonine-protein kinase 1 (RIPK1) in the brain” (Eur J Med Chem, 2024).

Key:
[1] = Stability of compound in saline at 37 degreeC incubated for 6 hrs by HPLC analysis; assay type: physicochemical; conditions: buffer
[2] = Drug uptake in male rat white matter region at 5 microCi/ml incubated for 30 mins by phosphor imager analysis; assay type: ADME, tissue-based, Brain white matter; conditions: 0.5 h
[3] = Drug uptake in male mouse cerebellum at 5 microCi/ml incubated for 30 mins by phosphor imager analysis; assay type: ADME, tissue-based; conditions: 0.5 h
[4] = Drug uptake in male mouse midbrain at 5 microCi/ml incubated for 30 mins by phosphor imager analysis; assay type: ADME, tissue-based; conditions: 0.5 h
[5] = Drug uptake in male mouse thalamus at 5 microCi/ml incubated for 30 mins by phosphor imager analysis; assay type: ADME, tissue-based; conditions: 0.5 h
[6] = Drug uptake in male Sprague-Dawley rat brain at 12.6 to 18.6 MBq, iv administered into tail vein measured at 1.5 mins post-injection by PET/CT imaging analysis; assay type: ADME, organism-based; conditions: in vivo, 0.025 h, dose 12.6-18.6 MBq
[7] = Drug uptake in male Sprague-Dawley rat cerebellum at 12.6 to 18.6 MBq, iv administered into tail vein by PET/CT imaging analysis; assay type: ADME, organism-based; conditions: in vivo, dose 12.6-18.6 MBq
[8] = Drug uptake in male Sprague-Dawley rat cortex at 12.6 to 18.6 MBq, iv administered into tail vein by PET/CT imaging analysis; assay type: ADME, organism-based; conditions: in vivo, dose 12.6-18.6 MBq
[9] = Drug uptake in male Sprague-Dawley rat brain at 12.6 to 18.6 MBq, iv administered into tail vein measured after rapid washout by PET/CT imaging analysis; assay type: ADME, organism-based; conditions: in vivo, dose 12.6-18.6 MBq
[10] = Biodistribution in male ICR mouse brain at 0.74 MBq, iv administered into tail vein measured at 2 mins post-injection by automatic gamma counter analysis; assay type: ADME, organism-based; conditions: in vivo
[11] = Biodistribution in male ICR mouse brain at 0.74 MBq, iv administered into tail vein measured at 10 mins post-injection by automatic gamma counter analysis; assay type: ADME, organism-based; conditions: in vivo
[12] = Biodistribution in male ICR mouse brain at 0.74 MBq, iv administered into tail vein measured at 60 mins post-injection by automatic gamma counter analysis; assay type: ADME, organism-based; conditions: in vivo, 1 h
[13] = Biodistribution in male ICR mouse blood at 0.74 MBq, iv administered into tail vein measured at 10 mins post-injection by automatic gamma counter analysis; assay type: ADME, organism-based; conditions: in vivo
[14] = Biodistribution in male ICR mouse blood at 0.74 MBq, iv administered into tail vein measured at 60 mins post-injection by automatic gamma counter analysis; assay type: ADME, organism-based; conditions: in vivo, 1 h
[15] = Biodistribution in male ICR mouse bone at 0.74 MBq, iv administered into tail vein measured at 30 mins post-injection by automatic gamma counter analysis; assay type: ADME, organism-based, Bone element; conditions: in vivo, 0.5 h
[16] = Biodistribution in male ICR mouse bone at 0.74 MBq, iv administered into tail vein measured at 60 mins post-injection by automatic gamma counter analysis; assay type: ADME, organism-based, Bone element; conditions: in vivo, 1 h
[17] = Biodistribution in male ICR mouse heart at 0.74 MBq, iv administered into tail vein by automatic gamma counter analysis; assay type: ADME, organism-based; conditions: in vivo
[18] = Biodistribution in male ICR mouse liver at 0.74 MBq, iv administered into tail vein by automatic gamma counter analysis; assay type: ADME, organism-based; conditions: in vivo
[19] = Biodistribution in male ICR mouse lungs at 0.74 MBq, iv administered into tail vein by automatic gamma counter analysis; assay type: ADME, organism-based, Lung; conditions: in vivo
[20] = Biodistribution in male ICR mouse kidneys at 0.74 MBq, iv administered into tail vein by automatic gamma counter analysis; assay type: ADME, organism-based, Kidney; conditions: in vivo
[21] = Biodistribution in male ICR mouse pancreas at 0.74 MBq, iv administered into tail vein by automatic gamma counter analysis; assay type: ADME, organism-based; conditions: in vivo
[22] = Biodistribution in male ICR mouse small intestine at 0.74 MBq, iv administered into tail vein measured at 60 mins post-injection by automatic gamma counter analysis; assay type: ADME, organism-based; conditions: in vivo, 1 h
[23] = Biodistribution in male ICR mouse brain at 0.74 MBq, iv administered into tail vein measured at 30 mins post-injection by automatic gamma counter analysis; assay type: ADME, organism-based; conditions: in vivo, 0.5 h
[24] = Biodistribution in male ICR mouse blood at 0.74 MBq, iv administered into tail vein measured at 30 mins post-injection by automatic gamma counter analysis; assay type: ADME, organism-based; conditions: in vivo, 0.5 h
[25] = Biodistribution in male ICR mouse blood at 0.74 MBq, iv administered into tail vein measured at 2 mins post-injection by automatic gamma counter analysis; assay type: ADME, organism-based; conditions: in vivo
[26] = Biodistribution in male ICR mouse bone at 0.74 MBq, iv administered into tail vein measured at 10 mins post-injection by automatic gamma counter analysis; assay type: ADME, organism-based, Bone element; conditions: in vivo
[27] = Biodistribution in male ICR mouse bone at 0.74 MBq, iv administered into tail vein measured at 2 mins post-injection by automatic gamma counter analysis; assay type: ADME, organism-based, Bone element; conditions: in vivo
[28] = Biodistribution in male ICR mouse heart at 0.74 MBq, iv administered into tail vein measured at 60 mins post-injection by automatic gamma counter analysis; assay type: ADME, organism-based; conditions: in vivo, 1 h
[29] = Biodistribution in male ICR mouse liver at 0.74 MBq, iv administered into tail vein measured at 60 mins post-injection by automatic gamma counter analysis; assay type: ADME, organism-based; conditions: in vivo, 1 h
[30] = Biodistribution in male ICR mouse lungs at 0.74 MBq, iv administered into tail vein measured at 60 mins post-injection by automatic gamma counter analysis; assay type: ADME, organism-based, Lung; conditions: in vivo, 1 h
[31] = Biodistribution in male ICR mouse kidneys at 0.74 MBq, iv administered into tail vein measured at 60 mins post-injection by automatic gamma counter analysis; assay type: ADME, organism-based, Kidney; conditions: in vivo, 1 h
[32] = Biodistribution in male ICR mouse pancreas at 0.74 MBq, iv administered into tail vein measured at 60 mins post-injection by automatic gamma counter analysis; assay type: ADME, organism-based; conditions: in vivo, 1 h
[33] = Biodistribution in male ICR mouse brain at 0.74 MBq, iv administered into tail vein pre-treated with GSK'547 by automatic gamma counter analysis; assay type: ADME, organism-based; conditions: in vivo

## Cc1ccc(C2CC=NN2C(=O)C2CCN(C(=O)c3cccc([18F])n3)CC2)cc1F (stereo not drawn)
[1]
  Stability: Stable
[2]
  Drug uptake: Active
[3]
  Drug uptake: Active
[4]
  Drug uptake: Active
[5]
  Drug uptake: Active
[6]
  SUVmax: 0.81
[7]
  SUV: Active
[8]
  SUV: Active
[9]
  SUV: 0.12
[10]
  Drug uptake: 4.8 % ID/g
[11]
  Drug uptake: 1.34 % ID/g
[12]
  Drug uptake: 0.14 % ID/g
[13]
  Drug uptake: 5.32 % ID/g
[14]
  Drug uptake: 0.97 % ID/g
[15]
  Drug uptake: 7.94 % ID/g
[16]
  Drug uptake: 6.69 % ID/g
[17]
  Drug uptake: > 6.5 % ID/g
[18]
  Drug uptake: > 6.5 % ID/g
[19]
  Drug uptake: > 6.5 % ID/g
[20]
  Drug uptake: > 6.5 % ID/g
[21]
  Drug uptake: > 6.5 % ID/g
[22]
  Drug uptake: 20.75 % ID/g
[23]
  Drug uptake: 0.36 % ID/g
[24]
  Drug uptake: 2.55 % ID/g
[25]
  Drug uptake: 4.57 % ID/g
[26]
  Drug uptake: 3.6 % ID/g
[27]
  Drug uptake: 3.09 % ID/g
[28]
  Drug uptake: < 4 % ID/g
[29]
  Drug uptake: < 4 % ID/g
[30]
  Drug uptake: < 4 % ID/g
[31]
  Drug uptake: < 4 % ID/g
[32]
  Drug uptake: < 4 % ID/g
[33]
  Drug uptake: 91%
